Source: PMC10117764, “The roles of serine hydrolases and serum albumin in alisol B 23-acetate hydrolysis in humans” (Frontiers in Pharmacology, 2023)

Tests used:
[1] = biological target: T1, FXR (Homo sapiens, UniProt Q96RI1); experiment: FXR transcriptional activation, Dual-Luciferase Reporter Assay in HEK293T cells; assay type: cell-based
T1 construct: expressed in transfected cells; host or cells: HEK293T
T1 sequence (Q96RI1 1-486): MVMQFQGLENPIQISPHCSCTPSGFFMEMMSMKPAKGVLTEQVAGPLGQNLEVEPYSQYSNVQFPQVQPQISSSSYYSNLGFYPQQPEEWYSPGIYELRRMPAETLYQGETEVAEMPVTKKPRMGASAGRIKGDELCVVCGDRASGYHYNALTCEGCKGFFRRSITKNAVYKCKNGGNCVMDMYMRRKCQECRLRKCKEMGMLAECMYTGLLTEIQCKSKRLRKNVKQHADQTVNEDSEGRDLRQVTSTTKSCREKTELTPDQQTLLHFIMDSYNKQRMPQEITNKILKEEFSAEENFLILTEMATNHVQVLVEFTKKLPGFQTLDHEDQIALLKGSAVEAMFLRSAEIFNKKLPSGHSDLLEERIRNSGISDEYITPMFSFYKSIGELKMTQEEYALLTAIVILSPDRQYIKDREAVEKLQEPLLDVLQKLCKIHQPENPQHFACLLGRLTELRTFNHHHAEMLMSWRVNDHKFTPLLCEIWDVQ
T1 sequence (P19793 1-462 partner): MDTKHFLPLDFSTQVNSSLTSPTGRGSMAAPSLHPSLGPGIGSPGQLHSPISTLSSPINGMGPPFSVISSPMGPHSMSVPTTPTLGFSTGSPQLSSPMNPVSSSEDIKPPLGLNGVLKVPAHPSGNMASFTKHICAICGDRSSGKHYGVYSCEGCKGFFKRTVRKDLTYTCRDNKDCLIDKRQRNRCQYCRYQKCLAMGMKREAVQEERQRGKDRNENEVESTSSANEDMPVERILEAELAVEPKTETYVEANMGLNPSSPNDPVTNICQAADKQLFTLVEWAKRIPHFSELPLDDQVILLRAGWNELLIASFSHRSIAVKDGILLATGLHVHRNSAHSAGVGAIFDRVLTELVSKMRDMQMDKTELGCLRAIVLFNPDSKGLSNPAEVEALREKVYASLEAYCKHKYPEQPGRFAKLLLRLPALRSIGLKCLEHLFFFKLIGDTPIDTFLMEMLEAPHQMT
Experimental: The phFXR, phRXR (retinoid X receptor) and FXR-dependent reporter (EcRE-LUC) were expressed and cotransfected with the Gal4 reporter vector MH100 × 4-TK-Luc, then 1 μg of the relevant plasmid was combined with 1 μg of reporter plasmids and 0.1 μg of pREP7 (Renilla Luciferase) reporter, which was used to normalize transfection efficiencies. HEK293T cells were dispensed into 96 well plates using a volume of 100 μL and 1 × 10^5 cells per well.

[2] = set-up: method as in Liu et al. (2022); conditions: oral administration of Qingfei Paidu Decoction, ref Liu et al. (2022); cited from earlier work
[3] = tested on: AB23A hydrolysis in HLMs; experiment: Chemical inhibition assay of AB23A hydrolysis in HLMs; assay type: biochemical, human; conditions: HLMs 0.1 mg/mL, AB23A 20 μM, 1 h; BNPP 50 μM, LPA 100 μM, GA 100 μM, boceprevir 20 μM, EDTA 20 μM
Experimental: (§1) The inhibitory effects of a series of selective inhibitors of human hydrolases against AB23A hydrolysis were assessed. The selective inhibitors of human hydrolases including BNPP (50 μM, a specific inactivator of CES), boceprevir (20 μM, a potent inhibitor for CTSA), LPA (100 μM, a selective inhibitor for CES2A), GA (100 μM, a cholinesterase inhibitor), EDTA (20 μM, a selective PONs inhibitor). The incubation system included PBS, inhibitors, HLMs (0.1 mg/mL)/human plasma (25% dilution), and AB23A (20 μM). After reacting for 1 h, ice-cold acetonitrile was used to terminate the reaction. The supernatants by centrifuging were used to quantify the formation rates of AB by LC-UV analysis.

[4] = tested on: AB23A hydrolysis in HIMs; experiment: Chemical inhibition assay of AB23A hydrolysis in HIMs; assay type: biochemical, human; conditions: BNPP 50 μM, LPA 100 μM
[5] = tested on: AB23A hydrolysis in human plasma; experiment: Chemical inhibition assay of AB23A hydrolysis in human plasma; assay type: biochemical; conditions: human plasma 25% dilution, AB23A 20 μM, 1 h; GA 100 μM, boceprevir 20 μM, EDTA 20 μM
Experimental: as §1

[6] = tested on: T2, CC(=O)O[C@H](C[C@@H](C)C1=C2C[C@H](O)C3[C@@]4(C)CCC(=O)C(C)(C)C4CC[C@]3(C)[C@@]2(C)CC1)[C@H]1OC1(C)C; experiment: Kinetic analysis of AB23A hydrolysis in hSA; assay type: in vitro ADME, human; conditions: other: hSA
T2 construct: purchased Sigma-Aldrich Lot#SLCC9268
Experimental: (§2) The enzymatic kinetics of AB23A hydrolysis in different tissue preparations (HLMs, HIMs, human plasma) and human recombinant enzymes (hCES1A, hCES2A, hSA, hBchE) were analyzed. The incubation system (200 μL) consisted of PBS, each tested enzyme, and AB23A (ranging from 0 to 1,000 μM). After incubating for 1 h, the supernatants were then used for LC-UV analysis. The kinetic parameters of AB23A hydrolysis were fitted by the following Michaelis−Menten Eq. 1 ([Zhang et al., 2022]). V=(Vmax×[S])⁄(Km+[S]) (1) Here, K m is the Michaelis constant of AB23A hydrolysis, V max is the maximum velocity of AB23A hydrolysis, V max /K m is used to calculate the intrinsic clearance (CL int ).

[7] = substrate: CC(=O)O[C@H](C[C@@H](C)C1=C2C[C@H](O)C3[C@@]4(C)CCC(=O)C(C)(C)C4CC[C@]3(C)[C@@]2(C)CC1)[C@H]1OC1(C)C; experiment: Kinetic analysis of AB23A hydrolysis in hCES1A; assay type: in vitro ADME, human; conditions: other: hCES1A
Experimental: as §2

[8] = substrate: CC(=O)O[C@H](C[C@@H](C)C1=C2C[C@H](O)C3[C@@]4(C)CCC(=O)C(C)(C)C4CC[C@]3(C)[C@@]2(C)CC1)[C@H]1OC1(C)C; experiment: Kinetic analysis of AB23A hydrolysis in hCES2A; assay type: in vitro ADME, human; conditions: other: hCES2A
Experimental: as §2

C[C@H](C[C@H](O)[C@H]1OC1(C)C)C1=C2C[C@H](O)[C@H]3[C@@]4(C)CCC(=O)C(C)(C)[C@@H]4CC[C@]3(C)[C@@]2(C)CC1 [AB, alisol B]
FXR agonist effect (transcriptional activation) ([1]; HEK293T cells, 5, 10, 20 μM, 48 h, GW4064 (10 μM) set at 100%): dose-dependently agonize FXR | FXR activation compared with AB23A ([1]; HEK293T cells, low doses (5 and 10 μM)): slightly more potent than AB23A | Detection in mice plasma and liver [2]: readily detected

O=[N+]([O-])c1ccc(OP(=O)(O)Oc2ccc([N+](=O)[O-])cc2)cc1 [BNPP, bis(p-nitrophenyl) phosphate]
Effect on AB23A hydrolysis in HLMs [3]: completely blocked | Effect on formation of AB (AB23A hydrolysis) in HIMs [4]: near-completely inhibited

O=C(O)CN(CCN(CC(=O)O)CC(=O)O)CC(=O)O [EDTA, Ethylenediaminetetraacetic acid]
Effect on formation of AB (AB23A hydrolysis) in human plasma [5]: negligible effects | Effect on AB23A hydrolysis in HLMs [3]: negligible effects

COc1ccc2c3c1O[C@H]1C[C@@H](O)C=C[C@@]31CCN(C)C2 [GA, galanthamine]
Effect on formation of AB (AB23A hydrolysis) in human plasma [5]: significantly inhibit | Effect on AB23A hydrolysis in HLMs [3]: slightly blocked

CN(C)C(=O)C(CCN1CCC(O)(c2ccc(Cl)cc2)CC1)(c1ccccc1)c1ccccc1 [LPA, Loperamide]
Effect on AB23A hydrolysis in HLMs [3]: slightly blocked | Effect on formation of AB (AB23A hydrolysis) in HIMs [4]: partially inhibit

CC(C)(C)NC(=O)N[C@H](C(=O)N1C[C@H]2[C@@H]([C@H]1C(=O)NC(CC1CCC1)C(=O)C(N)=O)C2(C)C)C(C)(C)C (stereo partly shown) [boceprevir, Boceprevir]
Effect on formation of AB (AB23A hydrolysis) in human plasma [5]: negligible effects | Effect on AB23A hydrolysis in HLMs [3]: negligible effects

hSA (Homo sapiens)
Vmax [6]: 0.0004 µmol/min/mg | Vmax/Km [6]: 1.53 µL/min/mg

B1: hCES1A (Homo sapiens) (protein)
chain: GHPSSPPVVDTVHGKVLGKFVSLEGFAQPVAIFLGIPFAKPPLGPLRFTPPQPAEPWSFVKNATSYPPMCTQDPKAGQLLSELFTNRKENIPLKLSEDCLYLNIYTPADLTKKNRLPVMVWIHGGGLMVGAASTYDGLALAAHENVVVVTIQYRLGIWGFFSTGDEHSRGNWGHLDQVAALRWVQDNIASFGGNPGSVTIFGESAGGESVSVLVLSPLAKNLFHRAISESGVALTSVLVKKGDVKPLAEQIAITAGCKTTTSAVMVHCLRQKTEEELLETTLKMKFLSLDLQGDPRESQPLLGTVIDGMLLLKTPEELQAERNFHTVPYMVGINKQEFGWLIPMQLMSYPLSEGQLDQKTAMSLLWKSYPLVCIAKELIPEATEKYLGGTDDTVKKKDLFLDLIADVMFGVPSVIVARNHRDAGAPTYMYEFQYRPSFSSDMKPKTVIGDHGDELFSVFGAPFLKEGASEEEIRLSKMVMKFWANFARNGNPNGEGLPHWPEYNQKEGYLQIGANTQAAQKLKDKEVAFWTNLFAKKAVEKPPQTE
notes: 10xHis; made in house; host or cells: HEK293-F cells, pTT5 vector, purified from conditioned medium
Vmax [7]: 0.0235 µmol/min/mg | Vmax/Km [7]: 123 µL/min/mg

B2: hCES2A (Homo sapiens) (protein)
chain: QDSASPIRTTHTGQVLGSLVHVKGANAGVQTFLGIPFAKPPLGPLRFAPPEPPESWSGVRDGTTHPAMCLQDLTAVESEFLSQFNMTFPSDSMSEDCLYLSIYTPAHSHEGSNLPVMVWIHGGALVFGMASLYDGSMLAALENVVVVIIQYRLGVLGFFSTGDKHATGNWGYLDQVAALRWVQQNIAHFGGNPDRVTIFGESAGGTSVSSLVVSPISQGLFHGAIMESGVALLPGLIASSADVISTVVANLSACDQVDSEALVGCLRGKSKEEILAINKPFKMIPGVVDGVFLPRHPQELLASADFQPVPSIVGVNNNEFGWLIPKVMRIYDTQKEMDREASQAALQKMLTLLMLPPTFGDLLREEYIGDNGDPQTLQAQFQEMMADSMFVIPALQVAHFQCSRAPVYFYEFQHQPSWLKNIRPPHMKADHGDELPFVFRSFFGGNYIKFTEEEEQLSRKMMKYWANFARNGNPNGEGLPHWPLFDQEEQYLQLNLQPAVGRALKAHRLQFWKKALPQKIQELEEPEERHTEL
notes: as for B1
Vmax [8]: 0.0125 µmol/min/mg | Vmax/Km [8]: 212 µL/min/mg
